# Assay results from ChEMBL document CHEMBL5316325, “Design and Synthesis of 3-Hydroxy-pyridin-4(1H)-ones-Ciprofloxacin Conjugates as Dual Antibacterial and Antibiofilm Agents against Pseudomonas aeruginosa” (J Med Chem, 2023).
# The source made the active and inactive calls. No cut-off for these calls is given here.
# Experiments:
# Pseudomonas aeruginosa [1] = test: Antibiofilm activity against Pseudomonas aeruginosa PAO1 in ABTGC medium assessed as biofilm biomass at 1/4 times MIC incubated for 24 hrs by crystal violet staining based assay relative to control; assay type: functional
# Pseudomonas aeruginosa [2] = test: Antibacterial activity against Pseudomonas aeruginosa ATCC 27853 in MHB medium assessed as bacterial growth inhibition by CLSI based broth microdilution method; assay type: functional
# Pseudomonas aeruginosa [3] = test: Antibacterial activity against Pseudomonas aeruginosa PAO1 in MHB medium assessed as bacterial growth inhibition by CLSI based broth microdilution method; assay type: functional
# Pseudomonas aeruginosa [4] = test: Antibacterial activity against Pseudomonas aeruginosa FB in MHB medium assessed as bacterial growth inhibition by CLSI based broth microdilution method; assay type: functional
# Pseudomonas aeruginosa [5] = test: Antibacterial activity against Pseudomonas aeruginosa 1167 in MHB medium assessed as bacterial growth inhibition by CLSI based broth microdilution method; assay type: functional
# Pseudomonas aeruginosa [6] = test: Antibacterial activity against Pseudomonas aeruginosa 1121 in MHB medium assessed as bacterial growth inhibition by CLSI based broth microdilution method; assay type: functional
# Pseudomonas aeruginosa [7] = test: Antibacterial activity against Pseudomonas aeruginosa 1129 in MHB medium assessed as bacterial growth inhibition by CLSI based broth microdilution method; assay type: functional
# Escherichia coli = test: Antibacterial activity against Escherichia coli ATCC 25922 in MHB medium assessed as bacterial growth inhibition by CLSI based broth microdilution method; assay type: functional
# Klebsiella pneumoniae = test: Antibacterial activity against Klebsiella pneumoniae ATCC 700603 in MHB medium assessed as bacterial growth inhibition by CLSI based broth microdilution method; assay type: functional
# Staphylococcus aureus [8] = test: Antibacterial activity against Staphylococcus aureus ATCC 25923 in MHB medium assessed as bacterial growth inhibition by CLSI based broth microdilution method; assay type: functional
# Staphylococcus aureus [9] = test: Antibacterial activity against methicillin-resistant Staphylococcus aureus ATCC 515992 in MHB medium assessed as bacterial growth inhibition by CLSI based broth microdilution method; assay type: functional
# Pseudomonas aeruginosa [10] = test: Antibacterial activity against Pseudomonas aeruginosa assessed as inhibition of virulence release at 4 ug/ml; assay type: functional, organism-based; conditions: dose 4.0 µg/ml
# Pseudomonas aeruginosa [11] = test: Antibacterial activity against Pseudomonas aeruginosa PAO1 in ABTGC medium assessed as bacterial growth inhibition; assay type: functional
# Pseudomonas aeruginosa [12] = test: Antibiofilm activity against Pseudomonas aeruginosa PAO1 in ABTGC medium assessed as biofilm biomass at 1/2 times MIC incubated for 24 hrs by crystal violet staining based assay relative to control; assay type: functional
# Pseudomonas aeruginosa [13] = test: Antibiofilm activity against Pseudomonas aeruginosa PAO1 in ABTGC medium assessed as biofilm biomass at MIC incubated for 24 hrs by crystal violet staining based assay relative to control; assay type: functional
# Pseudomonas aeruginosa [14] = test: Antibiofilm activity against Pseudomonas aeruginosa PAO1 assessed as decrease in rhamnolipid level at 15 uM by absorbance based assay; assay type: functional, organism-based
# Pseudomonas aeruginosa [15] = test: Antibiofilm activity against Pseudomonas aeruginosa PAO1 assessed as decrease in pyocyanin level at 15 uM by absorbance based assay; assay type: functional, organism-based
# Pseudomonas aeruginosa [16] = test: Antibiofilm activity against Pseudomonas aeruginosa PAO1 assessed as inhibition of bacterial motility at 15 uM incubated for 16 hrs relative to control; assay type: functional, organism-based
# Pseudomonas aeruginosa [17] = test: Antibiofilm activity against Pseudomonas aeruginosa PAO1 assessed as biofilm eradication at 4 times MIC incubated for 24 hrs by crystal violet staining based assay relative to control; assay type: functional
# Pseudomonas aeruginosa [18] = test: Antibiofilm activity against Pseudomonas aeruginosa PAO1 assessed as biofilm eradication at high concentration incubated for 36 hrs by crystal violet staining based assay; assay type: functional, organism-based
# Pseudomonas aeruginosa [19] = test: Antibiofilm activity against Pseudomonas aeruginosa PAO1 in ABTGC medium assessed as biofilm biomass at MIC incubated for 24 hrs in presence of 10 uM Fe by crystal violet staining based assay relative to control; assay type: functional
# HEK293 [20] = test: Cytotoxicity against HEK293 cells at 50 to 100 uM incubated for 48 hrs by MTT assay relative to control; assay type: toxicity, cell-based; conditions: human, hek293, 48 h, dose 50-100 µM
# [21] = Toxicity in Caenorhabditis elegans assessed as survival rate at 50 to 100 uM measured after 48 hrs by bright field microscopy; conditions: dose 50-100 µM
# Pseudomonas aeruginosa [22] = test: Antibacterial activity against Pseudomonas aeruginosa PAO1 assessed as log reduction in CFU/ml at 8 times MIC measured after 2 hrs by time killing analysis; assay type: functional
# Pseudomonas aeruginosa [23] = test: Antibacterial activity against Pseudomonas aeruginosa PAO1 assessed as reduction in bacterial CFU count at 8 times MIC measured after 4 hrs by time killing analysis; assay type: functional, organism-based
# Pseudomonas aeruginosa [24] = test: Antibacterial activity against Pseudomonas aeruginosa PAO1 assessed as reduction in bacterial viability at MIC measured after 8 hrs by time killing analysis; assay type: functional, organism-based
# Pseudomonas aeruginosa [25] = test: Antibacterial activity against Pseudomonas aeruginosa PAO1 assessed as reduction in bacterial viability at 8 times MIC measured after 4 hrs by time killing analysis; assay type: functional, organism-based
# Pseudomonas aeruginosa [26] = test: Antibiofilm activity against Pseudomonas aeruginosa PAO1 in ABTGC medium assessed as biofilm biomass at 1/2 times MIC incubated for 24 hrs in presence of 10 uM Fe by crystal violet staining based assay relative to control; assay type: functional
# Pseudomonas aeruginosa [27] = test: Antibiofilm activity against Pseudomonas aeruginosa PAO1 in ABTGC medium assessed as biofilm biomass at 1/4 times MIC incubated for 24 hrs in presence of 10 uM Fe by crystal violet staining based assay relative to control; assay type: functional
# Pseudomonas aeruginosa [28] = test: Antibiofilm activity against Pseudomonas aeruginosa PAO1 in ABTGC medium assessed as biofilm biomass at MIC incubated for 24 hrs in presence of 40 uM Fe by crystal violet staining based assay relative to control; assay type: functional
# Pseudomonas aeruginosa [29] = test: Antibiofilm activity against Pseudomonas aeruginosa PAO1 in ABTGC medium assessed as biofilm biomass at 1/2 times MIC incubated for 24 hrs in presence of 40 uM Fe by crystal violet staining based assay relative to control; assay type: functional
# Pseudomonas aeruginosa [30] = test: Antibiofilm activity against Pseudomonas aeruginosa PAO1 in ABTGC medium assessed as biofilm biomass at 1/4 times MIC incubated for 24 hrs in presence of 40 uM Fe by crystal violet staining based assay relative to control; assay type: functional
# Pseudomonas aeruginosa [31] = test: Antibiofilm activity against Pseudomonas aeruginosa PAO1 assessed as decrease in rhamnolipid level by absorbance based assay; assay type: functional, organism-based; conditions: dose 1.72-6.88 µM
# Pseudomonas aeruginosa [32] = test: Antibiofilm activity against Pseudomonas aeruginosa PAO1 assessed as decrease in pyocyanin level by absorbance based assay; assay type: functional, organism-based; conditions: dose 1.72-6.88 µM
# Pseudomonas aeruginosa [33] = test: Antibiofilm activity against Pseudomonas aeruginosa PAO1 assessed as decrease in rhamnolipid level at 3.44 uM by absorbance based assay relative to control; assay type: functional; parameters: scale not given: the % may be the effect or the level left
# Pseudomonas aeruginosa [34] = test: Antibiofilm activity against Pseudomonas aeruginosa PAO1 assessed as decrease in pyocyanin level at 3.44 uM by absorbance based assay relative to control; assay type: functional; parameters: scale not given: the % may be the effect or the level left
# Pseudomonas aeruginosa [35] = test: Antibiofilm activity against Pseudomonas aeruginosa PAO1 assessed as reduction in swimming motility at 3.44 uM incubated for 16 hrs relative to control; assay type: functional; parameters: scale not given: the % may be the effect or the level left
# Pseudomonas aeruginosa [36] = test: Antibiofilm activity against Pseudomonas aeruginosa PAO1 assessed as reduction in swarming motility at 3.44 uM incubated for 16 hrs relative to control; assay type: functional; parameters: scale not given: the % may be the effect or the level left
# Pseudomonas aeruginosa [37] = test: Antibiofilm activity against Pseudomonas aeruginosa PAO1 assessed as reduction in twitching motility at 3.44 uM incubated for 16 hrs relative to control; assay type: functional; parameters: scale not given: the % may be the effect or the level left
# HEK293 [38] = test: Cytotoxicity against HEK293 cells upto 100 uM incubated for 48 hrs by MTT assay; assay type: toxicity, cell-based; conditions: human, hek293, 48 h
# A549 = test: Cytotoxicity against human A549 cells upto 100 uM incubated for 16 hrs by MTT assay; assay type: toxicity, cell-based; conditions: a549, 16 h
# Pseudomonas aeruginosa [39] = test: Antibacterial activity against Pseudomonas aeruginosa PAO1 assessed as decrease in bacterial load at MIC measured for 12 hrs by absorbance based assay; assay type: functional, organism-based
# [40] = Toxicity in Caenorhabditis elegans infected with Pseudomonas aeruginosa PAO1 assessed as survival at MIC measured after 48 hrs by bright field microscopy relative to control; conditions: read-out: Activity
Compound,Activity (Pseudomonas aeruginosa [1]) [%],MIC (Pseudomonas aeruginosa [2]) [µM],MIC (Pseudomonas aeruginosa [3]) [µM],MIC (Pseudomonas aeruginosa [4]) [µM],MIC (Pseudomonas aeruginosa [5]) [µM],MIC (Pseudomonas aeruginosa [6]) [µM],MIC (Pseudomonas aeruginosa [7]) [µM],MIC (Escherichia coli) [µM],MIC (Klebsiella pneumoniae) [µM],MIC (Staphylococcus aureus [8]) [µM],MIC (Staphylococcus aureus [9]) [µM],MIC (Pseudomonas aeruginosa [11]) [µM],Activity (Pseudomonas aeruginosa [12]) [%],Activity (Pseudomonas aeruginosa [13]) [%],Activity (Pseudomonas aeruginosa [17]) [%],Activity (Pseudomonas aeruginosa [18]),Activity (Pseudomonas aeruginosa [19]) [%],Activity [21],also measured
Cc1cc(=O)c(O)c(CNC(=O)CCC(N)(CCC(=O)NCc2c(O)c(=O)cc(C)n2C)CCC(=O)NCc2c(O)c(=O)cc(C)n2C)n1C,99.8,> 200,> 200,> 200,> 200,> 200,> 200,> 200,> 200,> 200,> 200,> 200,346.5,315.1,,,,,inhibition (Pseudomonas aeruginosa [10]): inactive
O=C(CCC(=O)N1CCN(c2cc3c(cc2F)c(=O)c(C(=O)O)cn3C2CC2)CC1)NCc1ccccc1,102.4,> 200,> 200,> 200,> 200,> 200,> 200,15.4,> 200,30.7,> 200,> 200,97.3,218.8,,,,,Activity (Pseudomonas aeruginosa [14]): inactive; Activity (Pseudomonas aeruginosa [15]): inactive; inhibition (Pseudomonas aeruginosa [16]): inactive
O=C(O)c1cn(C2CC2)c2cc(N3CCNCC3)c(F)cc2c1=O [CIPROFLOXACIN],,,,,,,,,,,,,,109.5,23.6,inactive,109.5,Non-Toxic,Activity (HEK293 [20]): 40%
Cc1cc(=O)c(O)c(CNC(=O)CCC(=O)N2CCN(c3cc4c(cc3F)c(=O)c(C(=O)O)cn4C3CC3)CC2)n1C,21.7,0.86,0.43,1.72,0.86,1.72,3.44,0.03,1.72,3.44,> 200,6.88,111.5,39,74.2,Active,39,Non-Toxic,FC (Pseudomonas aeruginosa [22]): 2; Activity (Pseudomonas aeruginosa [23]): Active; Activity (Pseudomonas aeruginosa [24]): Active; Activity (Pseudomonas aeruginosa [25]): Active; Activity (Pseudomonas aeruginosa [26]): 111.5%; Activity (Pseudomonas aeruginosa [27]): 21.7%; Activity (Pseudomonas aeruginosa [28]): 211%; Activity (Pseudomonas aeruginosa [29]): 223.4%; Activity (Pseudomonas aeruginosa [30]): 205.2%; Activity (Pseudomonas aeruginosa [31]): Dose-Dependent Effect; Activity (Pseudomonas aeruginosa [32]): Dose-Dependent Effect; Activity (Pseudomonas aeruginosa [33]): 20%; Activity (Pseudomonas aeruginosa [34]): 40%; Activity (Pseudomonas aeruginosa [35]): 63%; Activity (Pseudomonas aeruginosa [36]): 30%; Activity (Pseudomonas aeruginosa [37]): 63%; Activity (HEK293 [38]): Non-Toxic; Activity (A549): Non-Toxic; Activity (Pseudomonas aeruginosa [39]): Active; survival at 48 h [40]: 50%
